Laboratory results from US20220033397A1, “PHARMACEUTICAL COMPOUNDS AND THEIR USE AS INHIBITORS OF UBIQUITIN SPECIFIC PROTEASE 19 (USP19)” (ALMAC DISCOVERY LIMITED, priority 2018, published 2022).

Molecular target: T1, Full-length USP19 (Homo sapiens, UniProt O94966)
T1 construct: Full-length USP19 was purchased from Boston Biochem (E-576); purchased Boston Biochem E-576
T1 sequence (O94966 1-1318): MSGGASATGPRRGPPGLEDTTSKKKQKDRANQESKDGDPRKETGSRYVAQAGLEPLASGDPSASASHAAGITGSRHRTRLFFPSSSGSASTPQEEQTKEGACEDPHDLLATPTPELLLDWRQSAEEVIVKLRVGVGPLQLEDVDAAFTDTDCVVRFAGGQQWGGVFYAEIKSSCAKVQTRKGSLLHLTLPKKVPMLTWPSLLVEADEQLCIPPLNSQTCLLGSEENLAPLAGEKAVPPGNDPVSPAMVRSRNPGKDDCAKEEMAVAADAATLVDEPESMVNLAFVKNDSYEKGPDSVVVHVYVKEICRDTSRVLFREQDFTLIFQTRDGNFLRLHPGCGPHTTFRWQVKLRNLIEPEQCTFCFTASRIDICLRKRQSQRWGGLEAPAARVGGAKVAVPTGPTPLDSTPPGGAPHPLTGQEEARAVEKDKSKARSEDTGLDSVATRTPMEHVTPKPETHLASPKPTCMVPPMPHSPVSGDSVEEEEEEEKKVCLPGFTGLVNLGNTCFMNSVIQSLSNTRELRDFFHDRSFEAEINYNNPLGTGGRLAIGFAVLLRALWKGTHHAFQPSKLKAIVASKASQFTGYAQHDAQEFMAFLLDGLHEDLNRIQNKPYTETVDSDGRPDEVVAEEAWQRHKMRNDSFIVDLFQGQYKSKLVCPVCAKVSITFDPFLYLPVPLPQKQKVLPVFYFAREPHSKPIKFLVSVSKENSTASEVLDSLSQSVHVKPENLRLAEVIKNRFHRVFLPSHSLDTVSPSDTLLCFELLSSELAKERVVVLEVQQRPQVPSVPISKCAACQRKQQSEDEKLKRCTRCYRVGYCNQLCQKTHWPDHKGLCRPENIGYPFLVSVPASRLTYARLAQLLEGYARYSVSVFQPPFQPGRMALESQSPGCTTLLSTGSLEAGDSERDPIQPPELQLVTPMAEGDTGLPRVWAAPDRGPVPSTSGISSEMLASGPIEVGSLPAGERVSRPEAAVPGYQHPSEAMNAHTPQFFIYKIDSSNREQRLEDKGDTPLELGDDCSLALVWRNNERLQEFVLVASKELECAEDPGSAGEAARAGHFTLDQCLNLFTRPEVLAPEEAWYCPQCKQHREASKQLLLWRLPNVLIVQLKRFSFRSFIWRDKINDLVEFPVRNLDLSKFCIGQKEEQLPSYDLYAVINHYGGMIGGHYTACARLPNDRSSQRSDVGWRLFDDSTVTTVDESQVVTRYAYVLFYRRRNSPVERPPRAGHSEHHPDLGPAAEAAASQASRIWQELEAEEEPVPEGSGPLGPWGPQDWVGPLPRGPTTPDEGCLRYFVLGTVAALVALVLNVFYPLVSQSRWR
Assay: USP19 fluorescence polarisation (FP) homogeneous assay with Ubiquitin-Lys-TAMRA substrate
Format: biochemical
Settings: 2.5 nM USP19, 30 min pre-incubation, average of at least two duplicate experiments
Method in brief: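 Full-length USP19 preincubated 30 min at RT with inhibitor (200 μM to 2 μM series, 8–18 points) before adding 500 nM Ubiquitin-Lys-TAMRA substrate.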

| SMILES | IC50 |
| --- | --- |
| O=C(N1CC[C@@](O)(Cn2cnc(-c3ccccc3)cc2=O)C2(CCCC2)C1)N1CCNC[C@H]1c1ccccc1 [Example 278, 3-(((S)-10-Hydroxy-7-((R)-2-phenylpiperazine-1-carbonyl)-7-azaspiro[4.5]decan-10-yl)methyl)-6-phenylpyrimidin-4(3H)-one] | < 0.5 µM |
| C[C@H](CC1CCCCC1)C(=O)N1CCC(O)(Cn2cnc3cn(C)nc3c2=O)C2(CCCC2)C1 (stereo partly drawn) [Example 173, 6-((7-((R)-3-Cyclohexyl-2-methylpropanoyl)-10-hydroxy-7-azaspiro[4.5]decan-10-yl)methyl)-2-methyl-2,6-dihydro-7H-pyrazolo[4,3-d]pyrimidin-7-one] | 5 to 50 µM |
| CC(CC1CCCCC1)C(=O)N1CCC(O)(CN2CC3(CCCCC3)CC2=O)C(C)(C)C1 (centres unmarked) [Example 46, 2-((1-(3-Cyclohexyl-2-methylpropanoyl)-4-hydroxy-3,3-dimethylpiperidin-4-yl)methyl)-2-azaspiro[4.5]decan-3-one] | 50 to 250 µM |
| CN(C(=O)N1CCC(O)(Cn2cnc(-c3ccccc3)cc2=O)C2(CCCC2)C1)C1CCC1 (centres unmarked) [Example 234, N-Cyclobutyl-10-hydroxy-N-methyl-10-((6-oxo-4-phenylpyrimidin-1(6H)-yl)methyl)-7-azaspiro[4.5]decane-7-carboxamide] | 5 to 50 µM |
| O=C(NCC1(F)CCC1)N1CC[C@@](O)(Cn2cnc(-c3ccccc3)cc2=O)C2(CCCC2)C1 [Example 312, (S)—N-((1-Fluorocyclobutyl)methyl)-10-hydroxy-10-((6-oxo-4-phenylpyrimidin-1(6H)-yl)methyl)-7-azaspiro[4.5]decane-7-carboxamide] | 5 to 50 µM |
| Cc1nc([C@@H]2CCCN2C(=O)N2CCC(O)(Cn3cnc(-c4ccccc4)cc3=O)C3(CCCC3)C2)n[nH]1 (stereo partly drawn) [Example 269, 3-((10-Hydroxy-7-((S)-2-(5-methyl-1H-1,2,4-triazol-3-yl)pyrrolidine-1-carbonyl)-7-azaspiro[4.5]decan-10-yl)methyl)-6-phenylpyrimidin-4(3H)-one] | 50 to 250 µM |
| C[C@H](CC1CCCCC1)C(=O)N1CCC(O)(Cn2ccc3occc3c2=O)C2(CCCC2)C1 (stereo partly drawn) [Example 138, 5-((7-((R)-3-Cyclohexyl-2-methylpropanoyl)-10-hydroxy-7-azaspiro[4.5]decan-10-yl)methyl)furo[3,2-c]pyridin-4(5H)-one] | 5 to 50 µM |
| C[C@H](CC(F)(F)F)C(=O)N1CCC(O)(CN2CCN(c3ccccc3)CC2=O)C2(CCCC2)C1 (stereo partly drawn) [Example 110, 1-((10-Hydroxy-7-((R)-4,4,4-trifluoro-2-methylbutanoyl)-7-azaspiro[4.5]decan-10-yl)methyl)-4-phenylpiperazin-2-one] | < 0.5 µM |
| O=C(N1CC[C@@](O)(Cn2cnc(C3CC3)cc2=O)C2(CCCC2)C1)N1CCNC[C@H]1c1cccc(F)c1 [Example 377, 6-Cyclopropyl-3-(((S)-7-((R)-2-(3-fluoro-phenyl)piperazine-1-carbonyl)-10-hydroxy-7-aza-spiro[4.5]decan-10-yl)methyl)pyrimidin-4(3H)-one] | < 0.5 µM |
| O=C(NCc1ccc(F)c(F)c1)N1CC[C@@](O)(Cn2cnc(-c3ccccc3)cc2=O)C2(CCCC2)C1 [Example 304, (S)—N-(3,4-Difluorobenzyl)-10-hydroxy-10-((6-oxo-4-phenylpyrimidin-1(6H)-yl)methyl)-7-azaspiro[4.5]decane-7-carboxamide] | < 0.5 µM |
| O=C(N1CC[C@@](O)(Cn2cnc(-c3cccc(F)c3)cc2=O)C2(CCCC2)C1)N1CCNC[C@H]1c1cccc(F)c1 [Example 375, 6-(3-Fluorophenyl)-3-(((S)-7-((R)-2-(3-fluorophenyl)pipera-zine-1-carbonyl)-10-hydroxy-7-aza-spiro[4.5]decan-10-yl)methyl)pyrimidin-4(3H)-one] | < 0.5 µM |
| O=C(N1CC[C@@](O)(Cn2cnc(-c3ccccc3)cc2=O)C2(CCCC2)C1)N1CCNC[C@H]1c1cc(F)ccc1F [Example 373, 3-(((S)-7-((R)-2-(2,5-Difluorophenyl)piper-azine-1-carbonyl)-10-hydroxy-7-azaspiro[4.5]decan-10-yl)methyl)-6-phenylpyrimidin-4(3H)-one] | < 0.5 µM |
| CC1(C)CN(C(=O)N2CCOC[C@H]2c2ccccc2)CC[C@@]1(O)Cn1cnc(-c2ccccc2)cc1=O [Example 310, 3-(((S)-4-Hydroxy-3,3-dimethyl-1-((R)-3-phenylmorpholine-4-carbonyl)piperidin-4-yl)methyl)-6-phenylpyrimidin-4(3H)-one] | < 0.5 µM |
| C[C@H](CC(F)(F)F)C(=O)N1CCC(O)(CN2C(=O)CC2c2ccccc2)C2(CCCC2)C1 (stereo partly drawn) [Example 101, 1-((10-Hydroxy-7-((R)-4,4,4-trifluoro-2-methylbutanoyl)-7-azaspiro[4.5]decan-10-yl)methyl)-4-phenylazetidin-2-one] | 50 to 250 µM |
| Cn1ncc2c(=O)n(CC3(O)CCN(C(=O)N4CCNC[C@H]4c4ccccc4)CC34CCCC4)cnc21 (stereo partly drawn) [Example 182, 5-((10-Hydroxy-7-((R)-2-phenylpiperazine-1-carbonyl)-7-azaspiro[4.5]decan-10-yl)methyl)-1-methyl-1,5-dihydro-4H-pyrazolo[3,4-d]pyrimidin-4-one] | < 0.5 µM |
| COc1ccc2c(=O)n(CC3(O)CCN(C(=O)[C@H](C)CC4CCCCC4)CC34CCCC4)cnc2c1 (stereo partly drawn) [Example 139, 3-((7-((R)-3-Cyclohexyl-2-methylpropanoyl)-10-hydroxy-7-azaspiro[4.5]decan-10-yl)methyl)-7-methoxyquinazolin-4(3H)-one] | 0.5 to 5 µM |
| C[C@H](CC1CCCCC1)C(=O)N1CCC(O)(Cn2cnc3c(cnn3-c3ccccc3)c2=O)C2(CCCC2)C1 (stereo partly drawn) [Example 176, 5-((7-((R)-3-Cyclohexyl-2-methylpropanoyl)-10-hydroxy-7-azaspiro[4.5]decan-10-yl)methyl)-1-phenyl-1,5-dihydro-4H-pyrazolo[3,4-d]pyrimidin-4-one] | < 0.5 µM |
| O=C(N1CC[C@@](O)(Cn2cnc(-c3ccccc3)cc2=O)C2(CCCC2)C1)N1CCNC[C@H]1c1cccc(F)c1 [Example 320, 3-(((S)-7-((R)-2-(3-Fluorophenyl)piperazine-1-carbonyl)-10-hydroxy-7-azaspiro[4.5]decan-10-yl)methyl)-6-phenylpyrimidin-4(3H)-one] | < 0.5 µM |
| O=C(NCC1(F)CC1)N1CC[C@@](O)(Cn2cnc(-c3ccccc3)cc2=O)C2(CCCC2)C1 [Example 311, (S)—N-((1-Fluorocyclopropyl)methyl)-10-hydroxy-10-((6-oxo-4-phenylpyrimidin-1(6H)-yl)methyl)-7-azaspiro[4.5]decane-7-carboxamide] | 0.5 to 5 µM |
| COc1ccc(C2CNCCN2C(=O)N2CCC(O)(Cn3cnc(-c4ccccc4)cc3=O)C3(CCCC3)C2)cc1 (centres unmarked) [Example 273, 3-((10-Hydroxy-7-(2-(4-methoxyphenyl)piperazine-1-carbonyl)-7-azaspiro[4.5]decan-10-yl)methyl)-6-phenylpyrimidin-4(3H)-one] | 5 to 50 µM |
| COc1cccc(-c2cc(=O)n(C[C@]3(O)CCN(C(=O)N4CCNC[C@H]4c4ccccc4)CC34CCCC4)cn2)c1 [Example 338, 3-(((S)-10-Hydroxy-7-((R)-2-phenylpiperazine-1-carbonyl)-7-azaspiro[4.5]decan-10-yl)methyl)-6-(3-methoxyphenyl) pyrimidin-4(3H)-one] | < 0.5 µM |
| C[C@H](CC1CCCCC1)C(=O)N1CCC(O)(Cn2cc(C(=O)N(C)C)c3ccccc3c2=O)C2(CCCC2)C1 (stereo partly drawn) [Example 145, 2-((7-((R)-3-Cyclohexyl-2-methylpropanoyl)-10-hydroxy-7-azaspiro[4.5]decan-10-yl)methyl)-N,N-dimethyl-1-oxo-1,2-dihydroisoquinoline-4-carboxamide] | 0.5 to 5 µM |
| O=C1CN(c2ccccc2)CCN1CC1(O)CCN(C(=O)NCc2ccccc2)CC12CCCC2 (centres unmarked) [Example 109, N-Benzyl-10-hydroxy-10-((2-oxo-4-phenylpiperazin-1-yl)methyl)-7-azaspiro[4.5]decane-7-carboxamide] | < 0.5 µM |
